In paper PMC5004293, “Characterization of FRM-36143 as a new γ-secretase modulator for the potential treatment of familial Alzheimer’s disease” (Alzheimer's Research & Therapy, 2016):
Read-outs that look alike come from different tables or passages of the source.

What was measured:
[1] = Compound exposure in rats (LC-MS/MS, brain tissue binding); assay type: in vivo; details: Wistar, oral, rat, 30 mg/kg, 6 h post-dose
Protocol: Mice and rats were maintained on 12/12 h light/dark cycle with food available ad libitum. Drug treatment was prepared in a vehicle of 1 % carboxymethylcellulose (CMC):Tween80 (99.5:0.5). Twelve-week-old wild-type male mice (129S6, Taconic Biosciences, Hudson, NY, USA) or rats (Wistar, Charles River Laboratories) were administered compound p.o. without prior fasting and euthanized by CO2 asphyxiation at specified times post-dosing. After extraction of the brain, the olfactory bulb and hindbrain were removed and the cerebral hemispheres separated (mice) or cut in 4 pieces (rats). The cerebellum was removed for bioanalysis of the compound. CSF was collected from the cisterna magna and blood from a cardiac puncture.
Cerebellums were homogenized in a Mini-BeadBeater (Biospec Products, Inc., Bartlesville, OK, USA). Brain samples, plasma, and CSF were prepared for LC-MS/MS by precipitating proteins with acetonitrile and vacuum filtration in the presence of an internal standard. Standards were prepared in the corresponding matrix. FRM-36143 was resolved by HPLC (Shimadzu) using a reverse-phase C18 Kinetex column (30X2.1 mM; Phenomenex, Torrance, CA, USA). […]
The unbound fraction in brain homogenate (fu,b) was determined in triplicate in the Rapid Equilibrium Dialysis device (8000 Da molecular weight cut-off membrane, Thermo Scientific/Pierce Biotechnology, Rockford, IL, USA). […]

[2] = system: Notch processing; experiment: Notch reporter assay (HeLa 6xCBF1-Luc, NotchΔE); assay type: cell-based, human; details: Homo sapiens, overnight
Protocol: The wild-type CBF1 binding element was cloned in front of the SV40 promoter-driven luciferase reporter construct of pGL3pro (Promega, Madison, WI, USA) using the following oligonucleotides: • CBF1 Fw (5’→3’): […] • CBF1 Rv (5’→3’): […]
Oligonucleotides were phosphorylated using T4 polynucleotide kinase and annealed (by heating to 90 °C and cooling to room temperature in a buffer containing 0.1 M NaCl). Plasmid pGL3pro was cleaved with BglII and dephosphorylated using alkaline phosphatase. The oligonucleotide pair was then ligated using T4 ligase with the linearized plasmid DNA. A clone containing 6 copies of the CBF1 element in front of the SV40 promoter was chosen. The 6xCBF1-RE/SV40 promoter was excised from pGL3 using XhoI and HindIII, and the fragment transferred to the pGL4.17 [luc2/Neo] vector (Promega) was opened with the same restriction enzymes.
The full length human Notch in plasmid pCMV6-XL5 (Origene, Rockville, MD, USA) was used to amplify a truncated form of Notch (NotchΔE) containing the 20-amino-acid (a.a.) signal sequence followed by 5 a.a. […]
HeLa cells stably transfected with the 6xCBF1-Luc reporter were transiently transfected with the NotchΔE construct (4 μg DNA/10^6 cells) using Lipofectamine 2000 (Thermo Fisher, Waltham, MA, USA) in 6-well plates. […] Chemiluminescence was then read on an EnVision plate reader (Perkin Elmer).

concentration at 6 h ([1]; CSF, read-out: CSF concentration): 122 nM
concentration at 6 h ([1]; brain (unbound), calculated using brain tissue binding, read-out: Unbound brain exposure): 156 nM
IC50 [2]: > 10 µM
SMILES: COc1nc(C2=NOC[C@H](c3cc4ccccc4o3)N2)ccc1-n1cnc(C)c1 [FRM-36143, (R)-5-(benzofuran-2-yl)-3-(6-methoxy-5-(4-methyl-1H-imidazol-1-yl)pyridin-2-yl)-5,6-dihydro-4H-1,2,4-oxadiazine]
